This is an account of results in ChEMBL document CHEMBL1201862, “PubChem BioAssay data set” (2004).

What all share (test): inhibition of tumour cell growth, NCI panel, 48 h
For test [1], the system named is HT-29.
Test [2] concerns SK-OV-3.
The test system of test [3] is MDA-MB-435.
Test [4] has as its system UACC-62.
The test system of test [5] is M14.
The subject of test [6] is OVCAR-3.
For test [7], the system named is SK-MEL-28.
Test [8] deals with SR.
Test [9] concerns HOP-62.
The subject of test [10] is HCC 2998.
For test [11], the system named is OVCAR-8.
The subject of test [12] is CCRF-CEM.
The test system of test [13] is U-251.
The subject of test [14] is OVCAR-5.
Test [15] concerns RXF 393.
Test [16] deals with SF-295.
Test [17] has as its system SNB-19.
Test [18] concerns UO-31.
For test [19], the system named is K562.
The test system of test [20] is MDA-MB-231.

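Briefly, cells in 96-well plates were exposed to five compound concentrations for 48 h, and endpoints were estimated by linear interpolation. The concentration for 50% growth inhibition is given as GI50.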 The source made the active and inactive calls. Cut-off read from the data, not from the text of the source: active = GI50 up to about 1.1 µM and inactive = higher.

In the case of `NS(=O)(=O)c1ccc(/N=N/c2c(O)c(C(=O)O)cc3ccccc23)cc1`, the GI50 in [1] was > 100 µM (inactive); in test [2], > 100 µM (inactive); in [3], 45.4 µM (inactive); in test [4], 37.2 µM (inactive); in test [5], > 75.9 µM (inactive); in [6], > 100 µM (inactive). Also, the GI50 in test [7] is > 93.5 µM (inactive); in test [8], 33.3 µM (inactive); in test [9], 99.1 µM (inactive); in [10], > 100 µM (inactive); in [11], > 100 µM (inactive); in test [12], > 100 µM (inactive). Further, the GI50 in [13] was 49.3 µM (inactive); in test [14], > 100 µM (inactive); in [15], > 100 µM (inactive); in test [16], > 100 µM (inactive); in test [17] it was 43.1 µM (inactive); in test [18], > 100 µM (inactive). The GI50 in test [19] is > 94.4 µM (inactive); in test [20], > 100 µM (inactive).
In the case of `CN(C)CCNc1c([N+](=O)[O-])sc2ccc(Cl)cc12`, the GI50 in [1] is 5.89 µM (inactive); in test [2], 25.5 µM (inactive); in [3], 88.5 µM (inactive); in test [4] it was 14 µM (inactive); in test [5], > 100 µM (inactive); in [6], > 100 µM (inactive). The GI50 in [7] is > 100 µM (inactive); in test [8], > 100 µM (inactive); in [9] it was 12.2 µM (inactive); in test [10] it was 15.7 µM (inactive); in test [11], 17.3 µM (inactive); in [12], 4.36 µM (inactive). Besides, the GI50 is 18.3 µM (inactive) in [13]; > 100 µM (inactive) in test [14]; 19.1 µM (inactive) in [15]; 17.6 µM (inactive) in [16]; 26.2 µM (inactive) in test [17]; 20 µM (inactive) in test [18]. The GI50 in [19] is 7.52 µM (inactive); in test [20], 17.3 µM (inactive).
Turning to `Cc1cn2c(/C=C3/C(=O)Nc4ccccc43)c(C)nc2s1`, the GI50 in test [1] is 0.605 µM (active); in test [2], 3.15 µM (inactive); in [3] it was 0.138 µM (active); in test [4], 1.33 µM (inactive); in test [5] it was 0.991 µM (active); in [6], 0.787 µM (active). The GI50 was 5.96 µM (inactive) in test [7]; 0.507 µM (active) in test [8]; 3.79 µM (inactive) in [9]; 1.84 µM (inactive) in test [10]; 3.54 µM (inactive) in test [11]; 1.03 µM (active) in test [12]. Moreover, the GI50 in test [13] is 2.24 µM (inactive); in [14] it was 6.55 µM (inactive); in test [15], 2.6 µM (inactive); in [16], 0.652 µM (active); in [17], 3.32 µM (inactive); in test [18] it was 5.6 µM (inactive). Further, the GI50 was 0.431 µM (active) in test [19] and 1.48 µM (inactive) in test [20].
For `C=C(CCC/C(C)=C/C=C/[C@H](C)CCCc1ccoc1)C[C@@H]1OC(=O)[C@H](C)[C@@H]1O`, the GI50 in test [1] was 15.1 µM (inactive); in [2], 8.15 µM (inactive); in [3], 9.06 µM (inactive); in test [4] it was 7.98 µM (inactive); in test [5], 8.81 µM (inactive); in test [6] it was 7.64 µM (inactive). Moreover, the GI50 in [7] is 7.41 µM (inactive); in test [8], 11.8 µM (inactive); in test [9], 8.63 µM (inactive); in test [10], 10.1 µM (inactive); in [11] it was 11.9 µM (inactive); in test [12] it was 11.9 µM (inactive). For the same compound, the GI50 in [13] was 11.8 µM (inactive); in test [14] it was 11 µM (inactive); in [15] it was 6.67 µM (inactive); in test [16], 8.83 µM (inactive); in test [17], 8.81 µM (inactive); in test [18] it was 7.69 µM (inactive). The GI50 in [19] is 13.7 µM (inactive); in test [20], 9.89 µM (inactive).
With `O=C(O)c1c2c(cc3c1CC1(Cc4cc5c(cc4C1=O)CCC5)C3)CCC2` (stereo not given), the GI50 in [1] is > 100 µM (inactive); in [2], > 100 µM (inactive); in test [3], > 100 µM (inactive); in [4], > 100 µM (inactive); in test [5], > 100 µM (inactive); in test [6], 56.4 µM (inactive). The GI50 was 26.9 µM (inactive) in test [7]; 20.7 µM (inactive) in test [8]; > 100 µM (inactive) in test [9]; 51.9 µM (inactive) in test [10]; > 100 µM (inactive) in [11]; 46.2 µM (inactive) in [12]. Further, the GI50 in test [13] is 85.9 µM (inactive); in [14], > 100 µM (inactive); in [15], 92.9 µM (inactive); in [16], > 100 µM (inactive); in test [17], > 100 µM (inactive); in test [18], > 100 µM (inactive). Also, the GI50 is 52.4 µM (inactive) in test [19] and > 100 µM (inactive) in test [20].
For the compound `O=NN(Cc1ccc(Cl)cc1)C(C(=O)O)c1ccccc1` (stereo not given), the GI50 in [1], in test [2], in test [3], in test [4], in [5] and in [6] was > 100 µM (inactive) each time. The GI50 in test [7] was > 100 µM (inactive); in test [8], > 100 µM (inactive); in test [9] it was > 100 µM (inactive); in test [10], 43.9 µM (inactive); in test [11] it was > 100 µM (inactive); in test [12], > 100 µM (inactive). The GI50 in [13], in test [14], in test [15], in test [16], in [17] and in test [18] was > 100 µM (inactive) in each case. Besides, the GI50 in test [19] and in [20] was > 100 µM (inactive) throughout.
Take `O=C(c1cc(Cl)cc(Cl)c1)N(Cc1cccnc1)C(=S)N(Cc1cccnc1)C(=O)c1cc(Cl)cc(Cl)c1`: the GI50 in test [1] was 31.9 µM (inactive); in test [2] it was > 100 µM (inactive); in [3], 85.9 µM (inactive); in test [4], 45.7 µM (inactive); in test [5], 26.4 µM (inactive); in [6], 21.7 µM (inactive). Besides, the GI50 in test [7] was 97.3 µM (inactive); in test [8] it was 16.1 µM (inactive); in [9], 29.9 µM (inactive); in test [10], 19.3 µM (inactive); in test [11], 28.8 µM (inactive); in test [12], 17.1 µM (inactive). For the same compound, the GI50 in test [13] was 22.2 µM (inactive); in test [14], 35.6 µM (inactive); in test [15], 34.2 µM (inactive); in test [16] it was 55.5 µM (inactive); in [17], 52.6 µM (inactive); in [18], 24.8 µM (inactive). Besides, the GI50 is 24.4 µM (inactive) in [19] and 26.5 µM (inactive) in [20].
Regarding `COc1ccc(CNC2=Nc3ccncc3S(=O)(=O)N2c2ccccc2)cc1`, the GI50 in test [1] was 48.3 µM (inactive); in test [2], > 100 µM (inactive); in test [3] it was 24.9 µM (inactive); in test [4], 40.2 µM (inactive); in test [5], 57.7 µM (inactive); in test [6], 82.8 µM (inactive). Also, the GI50 in test [7] was 21.6 µM (inactive); in test [8], 23.3 µM (inactive); in [9] it was > 100 µM (inactive); in test [10], 3.77 µM (inactive); in test [11], 49.8 µM (inactive); in [12], 19.4 µM (inactive). In addition, the GI50 in test [13] is 68.1 µM (inactive); in [14], > 100 µM (inactive); in test [15], 50.7 µM (inactive); in [16], 65 µM (inactive); in test [17] it was > 100 µM (inactive); in [18] it was 45.7 µM (inactive). The results for the GI50 in test [19] and in test [20] were 29 µM (inactive) and > 100 µM (inactive), respectively.
`N/C(=N/c1ccc(O)cc1)S(=O)O`: the GI50 in test [1] is > 100 µM (inactive); in test [2] it was 41.5 µM (inactive); in [3], > 100 µM (inactive); in [4], > 100 µM (inactive); in [5] it was > 100 µM (inactive); in [6], > 100 µM (inactive). The GI50 in [7] was > 100 µM (inactive); in test [8] it was > 100 µM (inactive); in test [9], > 100 µM (inactive); in test [10], > 100 µM (inactive); in test [11], > 100 µM (inactive); in test [12], 89.9 µM (inactive). Further, the GI50 in test [13], in test [14], in [15], in [16], in test [17] and in test [18] was > 100 µM (inactive) each time. Further, the GI50 in [19] and in test [20] was > 100 µM (inactive) throughout.
In the case of `C=C1C(=O)OC2/C=C(\C)C3OC3/C=C(/C(=O)OC)C(OC(C)=O)C(OC(=O)C(C)(O)C(C)OC(C)=O)C12` (stereo not given), the GI50 in [1] was 1.29 µM (inactive); in test [2] it was 18.7 µM (inactive); in test [3], 2.03 µM (inactive); in test [4] it was 1.7 µM (inactive); in [5] it was 2.39 µM (inactive); in test [6], 3.13 µM (inactive). Also, the GI50 in [7] is 2.23 µM (inactive); in test [8], 0.652 µM (active); in test [9], 20.8 µM (inactive); in test [10], 3.83 µM (inactive); in test [11], 1.4 µM (inactive); in [12], 0.305 µM (active). The GI50 in [13] was 3.03 µM (inactive); in test [14] it was 5.58 µM (inactive); in test [15] it was 0.501 µM (active); in test [16] it was 9.2 µM (inactive); in test [17], 14.5 µM (inactive); in test [18] it was 6.52 µM (inactive). Also, the GI50 is 0.741 µM (active) in test [19] and 8.93 µM (inactive) in test [20].
